In patent publication US7795272B2, “Glucocorticoid mimetics, methods of making them, pharmaceutical compositions and uses thereof” (Boehringer Ingelheim Pharmaceutical, Inc., priority 2004, dated 2010):

What was measured:
[1] = biological target: T1, human glucocorticoid receptor (GR) complex (Homo sapiens, UniProt P04150); assay: Glucocorticoid receptor competitive binding assay (fluorescence polarization); conditions: competition with TAMRA-labeled dexamethasone; result in words only
T1 construct: made in house; host or cells: insect cells (baculovirus expression), used as crude lysate
T1 sequence (P04150 1-777): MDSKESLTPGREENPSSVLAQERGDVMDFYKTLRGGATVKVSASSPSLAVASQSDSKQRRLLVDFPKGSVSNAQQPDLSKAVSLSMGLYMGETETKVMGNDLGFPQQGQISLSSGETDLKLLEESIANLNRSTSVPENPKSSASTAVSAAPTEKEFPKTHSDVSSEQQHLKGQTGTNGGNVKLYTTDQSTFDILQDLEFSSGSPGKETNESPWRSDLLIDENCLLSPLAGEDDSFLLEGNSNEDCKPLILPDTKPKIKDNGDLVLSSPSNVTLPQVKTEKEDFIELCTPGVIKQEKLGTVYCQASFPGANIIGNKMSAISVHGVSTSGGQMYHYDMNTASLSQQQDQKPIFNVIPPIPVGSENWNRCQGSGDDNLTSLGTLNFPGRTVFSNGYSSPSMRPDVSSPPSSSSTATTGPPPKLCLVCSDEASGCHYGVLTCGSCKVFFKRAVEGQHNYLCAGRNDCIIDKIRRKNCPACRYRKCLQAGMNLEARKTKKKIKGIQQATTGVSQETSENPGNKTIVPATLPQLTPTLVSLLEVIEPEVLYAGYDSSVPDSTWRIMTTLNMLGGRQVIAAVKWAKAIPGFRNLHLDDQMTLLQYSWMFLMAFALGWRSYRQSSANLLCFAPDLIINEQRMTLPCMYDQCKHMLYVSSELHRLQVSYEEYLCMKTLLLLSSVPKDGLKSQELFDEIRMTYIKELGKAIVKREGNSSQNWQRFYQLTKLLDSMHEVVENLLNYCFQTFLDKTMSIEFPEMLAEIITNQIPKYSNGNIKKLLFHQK
Method: Compounds of the invention were evaluated for binding to the steroid receptor by a fluorescence polarization competitive binding assay. Detailed descriptions for preparation of recombinant glucocorticoid receptor (GR) complex used in the assay is described in U.S. Patent Application Publication No. US 2003/0017503, filed May 20, 2002, and incorporated herein by reference in its entirety. Preparation of the tetramethyl rhodamine (TAMRA)-labeled dexamethasone probe was accomplished using a standard literature procedure (M. Pons et al., J. Steroid Biochem., 1985, 22, pp. 267-273).
A. Glucocorticoid Receptor Competitive Binding Assay
The affinity of the probe for the steroid receptor was then determined in a titration experiment. The fluorescence polarization value of the probe in assay buffer was measured on an SLM-8100 fluorometer using the excitation and emission maximum values described above. Aliquots of expression vector lysate were added and fluorescence polarization was measured after each addition until no further change in polarization value was observed. Non-linear least squares regression analysis was used to calculate the dissociation constant of the probe from the polarization values obtained for lysate binding to the probe.
(§1) This assay uses fluorescence polarization (FP) to quantitate the ability of test compounds to compete with tetramethyl rhodamine (TAMRA)-labeled dexamethasone for binding to a human glucocorticoid receptor (GR) complex prepared from an insect expression system. The assay buffer was: 10 mM TES, 50 mM KCl, 20 mM Na2MoO4.2H2O, 1.5 mM EDTA, 0.04% w/v CHAPS, 10% v/v glycerol, 1 mM dithiothreitol, pH 7.4. Test compounds were dissolved to 1 mM in neat DMSO and then further diluted to 10× assay concentration in assay buffer supplemented with 10% v/v DMSO. Test compounds were serially diluted at 10× assay concentrations in 10% DMSO-containing buffer in 96-well polypropylene plates. Binding reaction mixtures were prepared in 96-well black Dynex microtiter plates by sequential addition of the following assay components to each well: 15 μL of 10× test compound solution, 85 μL of GR-containing baculovirus lysate diluted 1:170 in assay buffer, and 50 μL of 15 nM TAMRA-labeled dexamethasone. Positive controls were reaction mixtures containing no test compound; negative controls (blanks) were reaction mixtures containing 0.7 μM to 2 μM dexamethasone. The binding reactions were incubated for 1 hour at room temperature and then read for fluorescence polarization in the LJL Analyst set to 550 nm excitation and 580 nm emission, with the Rhodamine 561 dichroic mirror installed. IC50 values were determined by iterative non-linear curve fitting of the FP signal data to a 4-parameter logistic equation.

glucocorticoid receptor = assay: Glucocorticoid receptor function, one or more of the above assays (not specified which); type: cell-based; conditions: in one or more of the above assays; result in words only
Method: as §1, with “Positive controls were reaction mixtures containing no test compound; negative controls (blanks) were reaction mixtures containing 0.7 μM to 2 μM dexamethasone.” left out
Dexamethasone, a synthetic ligand to the glucocorticoid receptor (GR), induces expression of aromatase in human foreskin fibroblast cells. The activity of aromatase is measured by the conversion of testosterone to estradiol in culture media.
Human foreskin fibroblast cells (ATCC Cat. No. CRL-2429, designation CCD112SK) are plated on 96 well plates at 50,000 cells per well 5 days before use, in Iscove's Modified Dulbecco's Media (GibcoBRL Life Technologies Cat No. 12440-053) supplemented with 10% charcoal filtered FBS (Clonetech Cat No. SH30068) and Gentamycin (GibcoBRL Life Technologies Cat. No. 15710-064). […] The extent of aromatase induction by test compounds is expressed as a relative percentage to dexamethasone. […]

Compound	activity in the GR binding assay [1]	activity as an agonist of the glucocorticoid receptor function (glucocorticoid receptor)
CC1(CC(O)(Cc2ccnc3ccccc23)C(F)(F)F)CCc2ccccc21 (stereo not drawn) [1,1,1-Trifluoro-3-(1-methylindan-1-yl)-2-quinolin-4-ylmethylpropan-2-ol]	potent activity	–
CC1(CC(O)(Cc2cc3ccccc3[nH]2)C(F)(F)F)CCOc2ccc(F)cc21 (stereo not drawn) [1,1,1-Trifluoro-3-(6-fluoro-4-methylchroman-4-yl)-2-(1H-indol-2-ylmethyl)propan-2-ol]	potent activity	activity as an agonist
CC1(CC(O)(Cc2ccnc3ccccc23)C(F)(F)F)CCOc2ccc(F)cc21 (stereo not drawn) [1,1,1-Trifluoro-3-(6-fluoro-4-methylchroman-4-yl)-2-quinolin-4-ylmethylpropan-2-ol]	–	activity as an agonist
OC(Cc1ccnc2ccccc12)(CC1CCOc2ccc(F)cc21)C(F)(F)F (stereo not drawn) [1,1,1-Trifluoro-3-(6-fluorochroman-4-yl)-2-quinolin-4-ylmethylpropan-2-ol]	potent activity	–
CC1(CC(O)(Cc2ccc(C#N)cc2Cl)C(F)(F)F)CCOc2ccc(F)cc21 (stereo not drawn) [3-Chloro-4-[3,3,3-trifluoro-2-(6-fluoro-4-methylchroman-4-ylmethyl)-2-hydroxypropyl]benzonitrile]	potent activity	–
Cc1cc(C#N)cc2[nH]c(CC(O)(CC3(C)CCOc4ccc(F)cc43)C(F)(F)F)cc12 (stereo not drawn) [4-Methyl-2-[3,3,3-trifluoro-2-(6-fluoro-4-methylchroman-4-ylmethyl)-2-hydroxypropyl]-1H-indole-6-carbonitrile]	potent activity	activity as an agonist
Cc1cc(C#N)cc2[nH]c(CC(O)(CC3(C)CCOc4ccc(S(C)(=O)=O)cc43)C(F)(F)F)cc12 (stereo not drawn) [4-Methyl-2-[3,3,3-trifluoro-2-hydroxy-2-(6-methanesulfonyl-4-methylchroman-4-ylmethyl)propyl]-1H-indole-6-carbonitrile]	potent activity	–
